Experimental data: the NIST ThermoML archive (doi:10.1021/je2002368)

Experiments:
[1] = refractive index (Na D-line) (dimensionless); conditions: 101.33 kPa, Liquid, Standard Abbe refractometry
[2] = 101.33 kPa, Liquid; for viscosity: Concentric cylinders viscometry; for mass density: Vibrating tube method

CCn1cc[n+](C)c1.O=C([O-])[C@@H]1CCCN1 [1-ethyl-3-methyl-1H-imidazolium L-prolinate]
Conditions	mass density, [2] [kg/m3]	refractive index, [1]	viscosity, [2] [mPa·s]
293.15 K	1158.14	1.51523	626.95
298.15 K	1155.08	1.51372	426.12
303.15 K	1152	1.51229	295.17
308.15 K	1148.9	1.51073	210.2
313.15 K	1145.78	1.50924	153.57
318.15 K	1142.64	1.50774	114.27
323.15 K	1139.5	1.50621	87.05
328.15 K	1136.36	1.50454	67.61
333.15 K	1133.22	1.5031	54.04
338.15 K	1130.08	–	43.43
343.15 K	1126.93	–	35.47
348.15 K	1123.79	–	29.36
353.15 K	1120.63	–	24.5

CCn1cc[n+](C)c1.C[C@H](N)C(=O)[O-] [1-ethyl-3-methylimidazolium L-alaninate]
Conditions	mass density, [2] [kg/m3]	refractive index, [1]	viscosity, [2] [mPa·s]
293.15 K	1139.2	1.50586	235.36
298.15 K	1136.1	1.5041	171.19
303.15 K	1133	1.50246	126.6
308.15 K	1129.8	1.50072	93.87
313.15 K	1126.6	1.49908	72.02
318.15 K	1123.5	1.49735	56.62
323.15 K	1120.3	1.49568	45.13
328.15 K	1117.2	1.49395	36.56
333.15 K	1114	1.49228	30.1
338.15 K	1110.9	–	25.02
343.15 K	1107.8	–	21.21
348.15 K	1104.7	–	18.05
353.15 K	1101.6	–	15.51

CCn1cc[n+](C)c1.NCC(=O)[O-] [1-ethyl-3-methylimidazolium ammonioacetate]
Conditions	mass density, [2] [kg/m3]	refractive index, [1]	viscosity, [2] [mPa·s]
293.15 K	1158	1.50628	80.37
298.15 K	1154.7	1.50473	61.51
303.15 K	1151.6	1.50313	47.75
308.15 K	1148.5	1.50154	37.79
313.15 K	1145.3	1.49988	30.31
318.15 K	1142.2	1.49827	24.89
323.15 K	1139	1.49657	20.64
328.15 K	1135.8	1.49488	17.33
333.15 K	1132.7	1.49321	14.72
338.15 K	1129.5	–	12.64
343.15 K	1126.3	–	10.94
348.15 K	1123.2	–	9.55
353.15 K	1120.1	–	8.38

CC[n+]1ccn(C)c1.N[C@@H](CO)C(=O)[O-] [3-ethyl-1-methyl-1H-imidazolium L-serinate]
Conditions	mass density, [2] [kg/m3]	refractive index, [1]	viscosity, [2] [mPa·s]
293.15 K	1198.3	1.51205	611.87
298.15 K	1195.2	1.51069	410.86
303.15 K	1191.9	1.50932	279.82
308.15 K	1188.6	1.50791	196.7
313.15 K	1185.2	1.50654	142.28
318.15 K	1182	1.50511	105.8
323.15 K	1178.9	1.50372	80.49
328.15 K	1175.8	1.50224	62.48
333.15 K	1172.6	1.50083	49.31
338.15 K	1169.5	–	39.63
343.15 K	1166.3	–	32.36
348.15 K	1162.9	–	26.82
353.15 K	1159.8	–	22.47
